According to patent publication US8952024B2, “Herbicidal pyrimidone derivatives” (E I du Pont de Nemours and Company, priority 2009, dated 2015):

Columns and labels:
Type in all cases: in vivo
[1] = system: cocklebur (Xanthium strumarium); experiment: Test B pre-/postemergence plant response
Method in brief: (§1)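 Seeds were sown in loam soil/sand blend and treated preemergence with compound in non-phytotoxic solvent mixture containing surfactant; postemergence sprays, same formulation, went onto plants 2 to 18 cm (1- to 4-leaf stage) in peat-based planting medium. Greenhouse 13 to 15 days, then visual rating versus untreated controls, 0 (no effect) to 100 (complete control).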

[2] = system: velvetleaf (Abutilon theophrasti); experiment: Test B pre-/postemergence plant response
Method in brief: as §1

[3] = system: wheat (Triticum aestivum); experiment: Test B pre-/postemergence plant response
Method in brief: as §1

kochia (Kochia scoparia) = experiment: Test B pre-/postemergence plant response
Method in brief: as §1

wild oat (Avena fatua) = experiment: Test B pre-/postemergence plant response
Method in brief: as §1

[4] = system: blackgrass (Alopecurus myosuroides); experiment: Test B pre-/postemergence plant response
Method in brief: as §1

[5] = system: pigweed (Amaranthus retroflexus); experiment: Test B pre-/postemergence plant response
Method in brief: as §1

soybean (Glycine max) = experiment: Test B pre-/postemergence plant response
Method in brief: as §1

[6] = system: Surinam grass (Brachiaria decumbens); experiment: Test B pre-/postemergence plant response
Method in brief: as §1

[7] = system: lambsquarters (Chenopodium album); experiment: Test B pre-/postemergence plant response
Method in brief: as §1

[8] = system: canarygrass (Phalaris minor); experiment: Test B postemergence plant response
Method in brief: (§2)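 Plants at the 1- to 4-leaf stage (2 to 18 cm tall), grown in pots of peat moss/vermiculite medium with wetting agent and starter nutrients, received postemergence applications of test chemicals. After 13 to 15 days in a greenhouse, injury was rated visually against untreated controls on a 0 (no effect) to 100 (complete control) scale.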

[9] = system: chickweed (Stellaria media); experiment: Test B postemergence plant response
Method in brief: as §2

[10] = system: windgrass (Apera spica-venti); experiment: Test B postemergence plant response
Method in brief: as §2

[11] = 31 g ai/ha, postemergence, scale 0 to 100, 0 is no effect, 100 is complete control
[12] = 62 g ai/ha, postemergence, 0 is no effect, 100 is complete control, 13 to 15 days
[13] = Postemergence, 125 g ai/ha, visual rating after 13 to 15 days, scale 0 (no effect) to 100 (complete control)
[14] = Postemergence, 250 g ai/ha, scale 0 to 100 (0 no effect, 100 complete control)

With `COCCn1c(-c2ccccc2)ncc(C(=O)C2=C(O)CCCC2=O)c1=O` [Compound 85] the “Plant response rating, Cocklebur” value [1, 11] was 95, the “Cocklebur plant response rating (0 to 100 scale)” value [1, 12] was 95 and the “Plant response rating, Cocklebur” value [1, 13] was 98. For the same compound, the “Plant response rating, Cocklebur” value [1, 14] was 98, the “Plant response rating, Velvetleaf” value [2, 11] was 90 and the “Velvetleaf plant response rating (0 to 100 scale)” value [2, 12] was 98. The “Plant response rating, Velvetleaf” value [2, 14] was 98, the “Plant response rating, Wheat” value [3, 11] was 0 and the “Wheat plant response rating (0 to 100 scale)” value [3, 12] was 5. For the same compound, the “Plant response rating, Wheat” value [3, 14] was 35, the “Plant response rating, Kochia” value (kochia (Kochia scoparia); [11]) was 75 and the “Kochia plant response rating (0 to 100 scale)” value (kochia (Kochia scoparia); [12]) was 85. For the same compound, the “Plant response rating, Kochia” value (kochia (Kochia scoparia); [14]) was 90, the “Plant response rating, Oat, Wild” value (wild oat (Avena fatua); [11]) was 5 and the “Oat, Wild plant response rating (0 to 100 scale)” value (wild oat (Avena fatua); [12]) was 25. For the same compound, the “Plant response rating, Oat, Wild” value (wild oat (Avena fatua); [14]) was 60, the “Plant response rating, Blackgrass” value [4, 11] was 5 and the “Blackgrass plant response rating (0 to 100 scale)” value [4, 12] was 35. The “Plant response rating, Blackgrass” value [4, 13] was 35, the “Plant response rating, Blackgrass” value [4, 14] was 50 and the “Plant response rating, Pigweed” value [5, 11] was 100. The “Pigweed plant response rating (0 to 100 scale)” value [5, 12] was 100, the “Plant response rating, Pigweed” value [5, 14] was 100 and the “Plant response rating, Soybean” value (soybean (Glycine max); [11]) was 80. For the same compound, the “Soybean plant response rating (0 to 100 scale)” value (soybean (Glycine max); [12]) was 85, the “Plant response rating, Soybean” value (soybean (Glycine max); [14]) was 95 and the “Plant response rating, Surinam Grass” value [6, 11] was 75. The “Surinam Grass plant response rating (0 to 100 scale)” value [6, 12] was 85, the “Plant response rating, Surinam Grass” value [6, 14] was 85 and the “Plant response rating, Lambsquarters” value [7, 11] was 98. For the same compound, the “Lambsquarters plant response rating (0 to 100 scale)” value [7, 12] was 98, the “Plant response rating, Lambsquarters” value [7, 14] was 100 and the “Plant response rating, Canarygrass” value [8, 11] was 35. For the same compound, the “Canarygrass plant response rating (0 to 100 scale)” value [8, 12] was 40, the “Plant response rating, Canarygrass” value [8, 13] was 55 and the “Plant response rating, Canarygrass” value [8, 14] was 60. For the same compound, the “Plant response rating, Chickweed” value [9, 11] was 85, the “Chickweed plant response rating (0 to 100 scale)” value [9, 12] was 95 and the “Plant response rating, Chickweed” value [9, 13] was 95. For the same compound, the “Plant response rating, Chickweed” value [9, 14] was 98, the “Plant response rating, Windgrass” value [10, 11] was 40 and the “Windgrass plant response rating (0 to 100 scale)” value [10, 12] was 70. The “Plant response rating, Windgrass” value [10, 14] was 95.
